# Test results published in ChEMBL document CHEMBL1123107, “Synthesis, stereochemistry, and analgesic activity of 4-mono- and 4,4-disubstituted 1,2,3,4,5,6-hexahydro-2,6-methano-3-benzazocines” (1985).
# The source made the active and inactive calls. The rule behind the calls is not given here.
# Organism: Mus musculus
# Experiment: Compound was evaluated for analgesic activity in a mouse hotplate test
# Type: functional
row,SMILES,ED50 [mg/kg]
1,C=CC[C@]1(C)CC2(C)CC(Cc3ccccc32)N1C (some centres undefined),3.7
2,CN1CC[C@]23c4c5ccc(O)c4O[C@H]2[C@@H](O)C=C[C@H]3[C@H]1C5.CN1CC[C@]23c4c5ccc(O)c4O[C@H]2[C@@H](O)C=C[C@H]3[C@H]1C5.O=S(=O)(O)O,1.2
3,C[C@H]1CC2(C)CC(Cc3ccccc32)N1C (some centres undefined),24.7
4,CC1CC2(C)CC(Cc3ccc(O)cc32)N1CC1CC1 (centres undefined),2.4
5,C[C@@H]1CC2(C)CC(Cc3ccccc32)N1C (some centres undefined),10.6
6,CC1CC2(C)CC(Cc3ccc(O)cc32)N1C (centres undefined),1.1
7,C=CCN1C(C)CC2(C)CC1Cc1ccc(O)cc12 (centres undefined),4.2
8,CC1CC2(C)c3ccccc3CC(C2C)N1C (centres undefined),14.8

# Organism: Mus musculus
# Experiment: Compound was evaluated for analgesic activity in a mouse hotplate test; b= low level of activity exhibited which did not follow a dose-response relationship
# Type: functional, organism-based
row,SMILES,ED50
1,CC1C2Cc3ccccc3C1(C)CC(Cc1ccccc1)N2C (centres undefined),Low level of activity
2,CC1C2Cc3ccccc3C1(C)CC(CCc1ccccc1)N2C (centres undefined),Low level of activity
3,CN1C2Cc3ccccc3C(C)(C2)CC1(C)Cc1ccccc1 (centres undefined),Low level of activity

# Test system: Mus musculus
# Experiment: Compound was evaluated for analgesic activity in a mouse hotplate test; IA= Inactive at the dose level of 50 mg/kg
# Type: functional, organism-based
# Design: dose 50 mg/kg
row,SMILES,ED50
1,CC1CN(C)C2Cc3ccc(O)cc3C1(C)C2 (centres undefined),inactive

# Test system: Mus musculus
# Experiment: Compound was evaluated for analgesic activity in a mouse hotplate test; IA= Inactive at the dose level of 20 mg/kg
# Type: functional, organism-based
# Design: dose 20 mg/kg
row,SMILES,ED50
1,C=CC[C@@]1(C)CC2(C)CC(Cc3ccccc32)N1C (some centres undefined),inactive
2,CCC1CC2(C)c3ccccc3CC(C2C)N1C (centres undefined),inactive
